In EP1392697B1, “ANTIDEPRESSANT AZAHETEROCYCLYMETHYL DERIVATIVES OF 2,3-DIHYDRO-1,4-DIOXINO 2,3-F]QUINOLINE” (Wyeth, priority 2001, dated 2002):

Experiments:
serotonin transporter = assay: 3H-paroxetine displacement binding, serotonin transporter affinity; conditions: displacement of 3H-paroxetine from male rat frontal cortical membranes; read-out: 5-HT Transporter Affinity KI
human 5HT1A receptors = assay: [3H] 8-OH-DPAT displacement binding, 5HT1A receptor affinity; conditions: displacement of [3H] 8-OH-DPAT; CHO cells stably transfected with human 5HT1A receptors
Excerpt: 8-OH-DPAT (dipropylamino-tetralin) from the 5HT1A serotonin receptor following a modification of the procedure of Hall et al., J. Neurochem.

[1] = target: cloned human 5HT1A receptors; assay: 35S-GTPγS binding assay, 5HT1A antagonist activity; format: biochemical; conditions: reversal of the effects of the standard agonist 8-OH-DPAT, read-out: 5HT1A Function IC50
Excerpt: Agonists produce an increase in binding whereas antagonists produce no increase but rather reverse the effects of the standard agonist 8-OH-DPAT. The test compound's maximum inhibitory effect is represented as the Imax, while its potency is defined by the IC50.

| SMILES | Ki (serotonin transporter) [nM] | Ki (human 5HT1A receptors) [nM] | IC50 [1] [nM] |
| --- | --- | --- | --- |
| CCc1cccc2c(CC3CCN(CC4COc5ccc6nc(C)ccc6c5O4)CC3)c[nH]c12 (stereo not drawn) [Example 19, 2-({4-[(7-Ethyl-1H-indol-3-yl)methyl]piperidin-1-yl}methyl)-8-methyl-2,3-dihydro[1,4]dioxino[2,3-f]quinoline] | 11 | 7.38 | 169 |
| Cc1ccc2c3c(ccc2n1)OCC(CN1CCC(Cc2c[nH]c4cc(Cl)ccc24)CC1)O3 (stereo not drawn) [Example 20, 2-({4-[(6-Chloro-1H-indol-3-yl)methyl]piperidin-1-yl}methyl)-8-methyl-2,3-dihydro[1,4]dioxino[2,3-f]quinoline] | 7 | 25.4 | 666 |
